Five molecules from patent publication US20150038545A1, “HYDROXYPHENYL PYRROLE COMPOUNDS CONTAINING AN HYDROXAMIC ACID AS HDAC INHIBITORS AND MEDICINAL APPLICATIONS THEREOF” (UNIVERSIDAD DEL PAÍS VASCO, priority 2011, published 2015) can be followed below.

One assay concerns K562. The assay is described as follows: Cancer cell growth inhibition (CellTiter-Glo), K562. To be noted: Homo sapiens; CML, K562, 72 h treatment. Type of assay: cell-based, Human. How it is done:
Cell culture-based assays were used to evaluate the ability of compounds of the invention to inhibit cancer cell growth.
Cells were obtained from the American Type Culture Collection (ATCC). Cells were cultured at 37° C. with 5% CO2 in the appropriate growth medium (see table below), and harvested respectively during the logarithmic growth period and counted with hemocytometer. The cell viability was examined by trypan blue exclusion. Cell concentrations were adjusted to 5.56×10^4 cells/ml with respective medium.
Stock solutions of test compounds and positive drugs Doxorubicin (Zhejiang, Haizheng, China), Cisplatin (Nanjing Zhiyao, China) and Mitomycin (Zhejiang, Haizheng, China) were prepared in dimethyl sulphoxide (DMSO) or PBS at 20 mM.
In order to determine the IC50 for each compound, experiments were carried out in 96-well plates and the cell lines seeded at a density of 5,000 cells/well. […] All treatments were performed in triplicate. 10 μl of drug solution was added to each well and incubated for 72 hours. At the end of the incubation, 100 μl of the CellTiter-Glo Reagent were added to each well and the contents were mixed for 2 munites on an orbital shaker to induce cell lysis. The plate was incubated at room temperature for 10 minutes to stabilize luminiscent signal, and luminiscent was recorded. […] In order to calculate IC50 values, dose-responsive curves were fitted using nonlinear regression model with a sigmoidal dose response.

The target of another assay is T1, Human HDAC7 (Homo sapiens, UniProt Q8WUI4).
T1 construct: Amino acids 518-end with N-terminal GST tag, MW=78 kDa; GST (N); purchased BioMol, Hamburg, Germany
T1 sequence (Q8WUI4 518-952 limits assumed): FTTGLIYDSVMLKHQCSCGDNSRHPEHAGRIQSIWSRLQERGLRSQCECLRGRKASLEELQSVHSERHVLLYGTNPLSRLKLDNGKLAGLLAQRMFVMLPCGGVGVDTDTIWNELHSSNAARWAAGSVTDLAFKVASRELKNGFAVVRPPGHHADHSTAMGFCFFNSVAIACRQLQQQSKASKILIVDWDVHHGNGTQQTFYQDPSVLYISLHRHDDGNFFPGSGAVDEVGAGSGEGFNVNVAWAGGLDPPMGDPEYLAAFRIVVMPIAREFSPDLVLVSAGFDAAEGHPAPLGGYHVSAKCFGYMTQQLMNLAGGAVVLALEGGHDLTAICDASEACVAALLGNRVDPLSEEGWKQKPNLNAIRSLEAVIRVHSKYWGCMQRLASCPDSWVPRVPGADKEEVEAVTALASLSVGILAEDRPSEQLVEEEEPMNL
Put plainly: In vitro HDAC7 inhibition, fluorogenic peptide assay. Type of assay: biochemical. To be noted: for IC50: read-out: IC50 (nM) of enzyme activity HDAC7. The protocol: All HDAC assays were performed using acetylated AMC-labeled peptide substrate: • Substrate for isoforms HDAC1, 2, 3, 4, 5, 6, 7, 9, 10, 11 and HeLa nuclear extract assays: Acetylated fluorogenic peptide from p53 residues 379-382 (RHKKAc) (BioMol. Cat. # KI-104). • Substrate for HDAC8 assays: Acetylated fluorogenic peptide from p53 residues 379-382 (RHKAcKAc) (BioMol. Cat. # KI-178).
Enzymes: • HDAC1 assay: 75 nM Human HDAC1 (GenBank Accession No. NM_004964): Full length with C-terminal GST tag, MW=79.9 kDa, expressed by baculovirus expression system in Sf9 cells (BioMol. Cat. # SE-456). • HDAC2 assay: 5 nM Human HDAC2 (GenBank Accession No. Q92769): Full length with C-terminal His tag, MW=60 kDa, expressed by baculovirus expression system in Sf9 cells (BioMol. Cat. # SE-500). • HDAC3 assay: 2.3 nM Human HDAC3/NcoR2 (GenBank Accession No. NM_003883 for HDAC3, GenBank Accession No.NM_006312 for NcoR2): Complex of human HDAC3, full length with C-terminal His tag, MW=49.7 kDa, and human NCOR2, N-terminal GST tag, MW=39 kDa, co-expressed in baculovirus expression system (BioMol. Cat. # SE-507). • HDAC4 assay: 266 nM Human HDAC4 (GenBank Accession No. NM_006037): Amino acids 627-1085 with N-terminal GST tag, MW=75.2 kDa, expressed in baculovirus expression system (BioMol, Hamburg, Germany). • HDAC5 assay: 588 nM Human HDAC5 (GenBank Accession No. NM_001015053): Full length with Nterminal GST tag, MW=150 kDa, expressed by baculovirus expression system in Sf9 cells (BioMol, Hamburg, Germany). • HDAC6 assay: 13 nM Human HDAC6 (GenBank Accession No. BC069243): Full length with N-terminal GST tag, MW=159 kDa, expressed by baculovirus expression system in Sf9 cells (BioMol. Cat. # SE-508). • HDAC7 assay: 962 nM Human HDAC7 (GenBank Accession No. AY302468): Amino acids 518-end with N-terminal GST tag, MW=78 kDa, expressed in baculovirus expression system (BioMol, Hamburg, Germany). • HDAC8 assay: 119 nM Human HDAC8 (GenBank Accession No. NM018486): Full length, MW=42 kDa, expressed in an E. coli expression system (BioMol. […]
The reactions were carried out in a 96-well microplate for fluorometry in a 50 μl reaction volume. […] The reaction was allowed to develop for 45 minutes at 30° C. with 5% CO2; then the fluorescent signal was measured with an excitation wavelength at 360 nm and an emission wavelength at 460 nm in a microplate-reading fluorometer (GeminiXS; Molecular Devices, Sunnyvale, Calif.). […] IC50 was calculated by fitting the experimental data to a dose-response curve. […]

Usually IC50 stands for the midpoint of a concentration-inhibition curve.

Consider `O=C(CCCCCNC(=O)c1[nH]c(-c2ccccc2)cc1-c1ccc(O)cc1)NO` [Example 1, N-(6-(hydroxyamino)-6-oxohexyl)-3-(4-hydroxyphenyl)-5-phenyl-1H-pyrrole-2-carboxamide], for which the IC50 in the assay on K562 worked out at 1.02 µM.

`O=C(CCCCCNC(=O)c1[nH]c(-c2ccc(O)cc2)cc1-c1ccoc1)NO` [Example 5, 3-(3-furyl)-N-(5-(hydroxycarbamoyl)pentyl)-5-(4-hydroxy-phenyl)-1H-pyrrole-2-carboxamide]: the IC50 on Human HDAC7 turned out to be 72 nM; in the assay with K562, 1.75 µM.

`O=C(CCCCCNC(=O)c1[nH]c(-c2ccc(O)cc2)cc1-c1ccccc1)NO` [Example 2, N-(6-(hydroxyamino)-6-oxohexyl)-5-(4-hydroxyphenyl)-3-phenyl-1H-pyrrole-2-carboxamide] yielded an IC50 in the assay on K562 of 1.61 µM.

`O=C(CCCCCNC(=O)c1[nH]c(-c2ccc(O)cc2)cc1-c1ccsc1)NO` [Example 6, N-(5-(hydroxycarbamoyl)pentyl)-5-(4-hydroxyphenyl)-3-(3-thienyl)-1H-pyrrole-2-carboxamide]: the concentration for half-maximal inhibition (IC50) on Human HDAC7 worked out at 318 nM; in the assay on K562 it was 1.35 µM.

On to `COc1ccc(-c2cc(-c3ccccc3)[nH]c2C(=O)NCCCCCC(=O)NO)cc1` [Compound A, N-[6-(hydroxyamino)-6-oxohexyl]-3-(4-methoxyphenyl)-5-phenyl-1H-pyrrole-2-carboxamide, reference compound], for which the “Selectivity against HDAC6 (IC50 HDACx/IC50 HDAC6) HDAC7” value on Human HDAC7 (IC50 HDAC7/IC50 HDAC6) was determined as 70.3. The IC50 on Human HDAC7 was found to be 1410 nM.
